The results in this text go back to patent US7988944B2, “Peroxide decomposition catalyst” (Sumitomo Chemical Company, Limited, priority 2005, dated 2011).

Data set [1] in a line: Hydrogen peroxide decomposition test in the presence of poly(sodium 4-styrenesulfonate). Conditions: 80° C.; for V(O2), generated oxygen volume: 20 minutes, pH4.0 tartrate buffer/ethylene glycol, 2.28 mmol H2O2, blank corrected, 0° C. and 101325 Pa; for N(O2), mole number of oxygen molecule generated per 20 minutes: oxygen regarded as ideal gas. On the procedure:
To a mixture of 8.41 μmol (per one metal atom) of a catalyst and 21.1 mg of poly(sodium 4-styrenesulfonate) (product commercially available from Aldrich, weight average molecular weight: about 70,000) are added 1.00 ml of a tartaric acid/sodium tartrate buffer (pH4.0) and 1.00 ml of ethylene glycol. After this catalyst mixture is stirred at 80° C. for 5 minutes, 0.20 ml of an 11.4 mol/l aqueous hydrogen peroxide solution is added, and the mixture is stirred at 80° C. for 20 minutes. A volume of oxygen generated thereupon is measured with a gas burette, and an amount of decomposed hydrogen peroxide is calculated. Thereafter, this reaction solution is diluted and filtrated, and the filtrate is measured by gel permeation chromatography (GPC), thereby, a weight average molecular weight of poly(sodium 4-styrenesulfonate) after a test is obtained. The GPC analysis condition will be shown below. Column: TSKgel α-M (13 μm, 7.8 mmφ×30 cm) manufactured by Tosoh Corporation, column temperature: 40° C., mobile phase: 50 mmol/l aqueous ammonium acetate solution: CH3CN=7:3 (v/v), flow rate: 0.6 ml/min, detector: RI, injection amount: 50 μl. A weight average molecular weight was obtained as a value in terms of polyethylene oxide. The A value is obtained by the (equation 1), and the B value is obtained by the (equation 2).
Mn-bbpr (4.90 mg, 8.41 μmol (per one metal atom)), and poly(sodium 4-sutyrenesulfonate)(21.1 mg (product commercially available from Aldrich, weight average molecular weight: about 70,000)) were weighed in a two-necked flask (25 ml), and a tartaric acid/sodium tartrate buffer (1.00 ml (prepared from 0.20 mol/l tartaric acid aqueous solution and 0.10 mol/l sodium tartrate aqueous solution, pH4.0)) and ethylene glycol (1.00 ml) as a solvent were added thereto, followed by stirring. This was used as a catalyst mixed solution.
Septum was attached to one of inlets of the two-necked flask containing this catalyst mixed solution, and the other inlet was collected to a gas burette. This flask was stirred at 80° C. for 5 minutes, a hydrogen peroxide aqueous solution (11.4 mol/l, 0.20 ml (2.28 mmol)) was added via a syringe, and a hydrogen peroxide decomposition reaction was performed at 80° C. for 20 minutes. Generated oxygen was measured with a gas burette, and decomposed hydrogen peroxide was quantitated. An amount of generated oxygen was corrected based on the following blank test. Thereafter, the reaction solution was diluted with a water/acetonitrile mixed solution (water:acetonitrile=7:3 (v/v)) to a solution amount of 10.0 ml, and this solution was filtered with a syringe filter. This filtrate was GPC-measured, and a weight average molecular weight of poly (sodium 4-sutyrenesulfonate) after a test was obtained.
Poly(sodium 4-styrenesulfonate) after the hydrogen peroxide decomposition test was GPC-analyzed. The analyzing conditions are shown below. Column: TSKgel α-M (13 μm, 7.8 mmφ×30 cm) manufactured by Tosoh Corporation, column temperature: 40° C., mobile phase: 50 mmol/l ammonium acetate aqueous solution: CH3CN=7:3 (v/v), flow rate: 0.6 ml/min, detector: RI, in injection amount: 50 μl. A weight average molecular weight was obtained as a value in terms of polyethylene oxide.
An amount of decomposed hydrogen peroxide was obtained from a volume of oxygen generated in the hydrogen peroxide decomposition test.

A short description of data set [2]: Solubility test of catalyst in DMF. The class given is physicochemical. Conditions: for Weight of peroxide decomposition catalyst residue which remained undissolved in DMF: about 20 mg catalyst, DMF 5.00 ml in total, residue on filter paper dried and weighed; for Solubility: catalyst 20.0±0.1 mg in 5.0 ml DMF, equation 3; for solubility (in words): from Table 1, DMF. The method, then:
Herein, as an index of solubility in a peroxide decomposition catalyst, solubility of a peroxide decomposition catalyst (20.0±0.1 mg) in a constant amount (5.0 ml) of dimethylformamide (hereinafter abbreviated as DMF) can be used. The solubility as used herein is represented by the following (equation 3).
First, a filter paper (No 5B φ21 m/m) for Kiriyama funnel was dried (100° C., under 200 pa reduced pressure, 6 h), and this was weighed. Then, a peroxide decomposition catalyst (20.0±0.1 mg) and DMF (2.00 ml) were weighed in a 8 ml glass sample tube containing a stirrer, and this was stirred with a magnetic stirrer for 5 minutes. This mixture was transferred with a 2 ml pipette to a glass Kiriyama funnel (φ21 mm) in which the dried filter paper was spread, and this was suction-filtered. The sample tube, the stirrer and the pipette which were used, were washed with DMF several times (total amount 3.00 ml), and the attached catalyst and DMF washing solution were transferred to the Kiriyama funnel, and these were suction-filtered together. Thereafter, the residue on the filter paper, and the filter paper together with the Kiriyama funnel were dried (100° C., under 200 pa reduced pressure, 24 h) in a vacuum oven. After drying, the filter paper, and the residue on the filter paper were weighed, and a dry filter paper weight before filtration was subtracted from this weight to obtain a weight of the peroxide decomposition catalyst residue which remained undissolved in DMF. From this, solubility indicated by the (equation 3) was calculated.

In the case of `[Co+2].c1ccc2c(c1)-c1nc-2nc2[n-]c(nc3nc(nc4[n-]c(n1)c1ccccc41)-c1ccccc1-3)c1ccccc21` [Cobalt phthalocyanine, cobalt phthalocyanine], in data set [1], the “V(O2), generated oxygen volume” value is 4.9 mL and the “N(O2), mole number of oxygen molecule generated per 20 minutes” value (“N(O2), mole number … per 20 minutes” for short) turned out to be 0.219 mmol. Further, in data set [2], the “Weight of peroxide decomposition catalyst residue which remained undissolved in DMF” value came out at 17.5 mg, the Solubility was found to be 12.9% and the “solubility (in words)” value was “low solubility”.

For `[Fe+2].c1ccc2c(c1)-c1nc-2nc2[n-]c(nc3nc(nc4[n-]c(n1)c1ccccc41)-c1ccccc1-3)c1ccccc21` [Iron phthalocyanine, iron phthalocyanine], in data set [1], the “V(O2), generated oxygen volume” value was found to be 14.33 mL and the “N(O2), mole number … per 20 minutes” value was 0.64 mmol. In data set [2], the “Weight of peroxide decomposition catalyst residue which remained undissolved in DMF” value is listed as 17.9 mg, the Solubility came to 11.0% and the “solubility (in words)” value is given as “low solubility”.

As to `CC(C)(C)c1ccc2c(c1)C1=Nc3c4cc(C(C)(C)C)ccc4c4[n]3[Fe][n]3c(c5ccc(C(C)(C)C)cc5c3=NC3=NC(=N4)c4cc(C(C)(C)C)ccc43)=NC2=N1` [Fe-pcy (^tBu)], in data set [1], the “V(O2), generated oxygen volume” value is 1.40 mL and the “N(O2), mole number … per 20 minutes” value turned out to be 0.0625 mmol. Besides, in data set [2], the “Weight of peroxide decomposition catalyst residue which remained undissolved in DMF” value stood at 0.03 mg, the Solubility amounted to 99.8% and the “solubility (in words)” value was “high solubility”.

As for `[Cu+2].c1ccc2c(c1)-c1nc-2nc2[n-]c(nc3nc(nc4[n-]c(n1)c1ccccc41)-c1ccccc1-3)c1ccccc21` [Copper phthalocyanine, copper phthalocyanine], in data set [1], the “V(O2), generated oxygen volume” value is 0.00 mL and the “N(O2), mole number … per 20 minutes” value was determined as 0.00 mmol. Moreover, in data set [2], the “Weight of peroxide decomposition catalyst residue which remained undissolved in DMF” value was determined as 17.3 mg, the Solubility was found to be 13.1% and the “solubility (in words)” value is recorded as “low solubility”.

For the compound `O.O.[Na+].[Na+].[O]=[W](=[O])([O-])[O-]` [Sodium tungstate dihydrate], in data set [2], the “Weight of peroxide decomposition catalyst residue which remained undissolved in DMF” value came out at 16.5 mg, the Solubility is reported as 17.8% and the “solubility (in words)” value is on record as “low solubility”.
